Source: ChEMBL document CHEMBL1144606, “Immunomodulatory effects of two sapogenins 1 and 2 isolated from Luffa cylindrica in Balb/C mice” (Bioorg Med Chem Lett, 2007)
The source made the active and inactive calls. The rule behind the calls is not given here.

Tests used:
[1] = tested on: Mus musculus; experiment: Immunostimulatory effect against SRBC-inducing plaque forming cells in BALB/c mouse assessed as antibody secreting B cells at 10 mg/kg, po relative to control; type: functional, organism-based; set-up: dose 10 mg/kg
[2] = tested on: Mus musculus; experiment: Enhancement of ConA-Stimulated lymphocyte proliferation in BALB/c mouse at 10 mg/kg by MTT assay; type: functional, organism-based; set-up: dose 10 mg/kg
[3] = tested on: Splenocyte; experiment: Enhancement of ConA-stimulated blastogenic responsiveness in BALB/c mouse splenocytes at 10 mg/kg; type: functional, organism-based; set-up: dose 10 mg/kg
[4] = tested on: Mus musculus; experiment: Increased phagocytic index in BALB/c mouse at 10 mg/kg; type: organism-based; set-up: dose 10 mg/kg; settings: in vivo
[5] = tested on: Mus musculus; experiment: Immunostimulatory effect against SRBC-inducing plaque forming cells in BALB/c mouse assessed as antibody secreting B cells at 100 mg/kg, po relative to control; type: functional, organism-based; set-up: dose 100 mg/kg
[6] = tested on: Mus musculus; experiment: Enhancement of ConA-Stimulated lymphocyte proliferation in BALB/c mouse at 100 mg/kg by MTT assay; type: functional, organism-based; set-up: dose 100 mg/kg
[7] = tested on: Splenocyte; experiment: Enhancement of ConA-stimulated blastogenic responsiveness in BALB/c mouse splenocytes at 100 mg/kg; type: functional, organism-based; set-up: dose 100 mg/kg
[8] = tested on: Splenocyte; experiment: Enhancement of LPS-stimulated blastogenic responsiveness in BALB/c mouse splenocytes at 100 mg/kg; type: functional, organism-based; set-up: dose 100 mg/kg
[9] = tested on: Mus musculus; experiment: Enhancement of LPS-Stimulated of lymphocyte proliferation in BALB/c mouse at 100 mg/kg by MTT assay; type: functional, organism-based; set-up: dose 100 mg/kg
[10] = tested on: Mus musculus; experiment: Immunostimulatory effect against SRBC-induced hormonal response in BALB/c mouse assessed as antibody production at 10 m/kg; type: functional, organism-based
[11] = tested on: Mus musculus; experiment: Immunostimulatory effect against SRBC-inducing hormoral response in BALB/c mouse assessed as antibody production at 100 mg/kg; type: functional, organism-based; set-up: dose 100 mg/kg
[12] = tested on: Mus musculus; experiment: Enhancement of LPS-Stimulated lymphocyte proliferation in BALB/c mouse at 10 mg/kg by MTT assay; type: functional, organism-based; set-up: dose 10 mg/kg
[13] = tested on: Splenocyte; experiment: Enhancement of LPS-stimulated blastogenic responsiveness in BALB/c mouse splenocytes at 10 mg/kg; type: functional, organism-based; set-up: dose 10 mg/kg

Compound	Activity [1]	Activity [2]	Activity [3]	Activity [4]	Activity [5]	Activity [6]	Activity [7]	Activity [8]	Activity [9]	Activity [10]	Activity [11]	Activity [12]	Activity [13]
CC1(C)CC[C@]2(C(=O)O)[C@H](O)C[C@]3(C)C(=CC[C@@H]4[C@@]5(C)CC[C@H](O)C(C)(C)[C@@H]5CC[C@]43C)[C@@H]2C1	Active	Active	Active	Active	Active	Active	Active	Active	Active				
CC1(C)CC[C@]2(C(=O)O)CC[C@]3(C)C(=CC[C@@H]4[C@@]5(C)CC[C@H](O)C(C)(C)[C@@H]5CC[C@]43C)[C@@H]2C1 [OLEANOLIC_ACID]	Active	Active	Active	Active	Active	Active	Active			Active	inactive	Active	Active
